Data published in ChEMBL document CHEMBL5579806, “Re-exploration of tetrahydro-β-carboline scaffold: Discovery of selective histone deacetylase 6 inhibitors with neurite outgrowth-promoting and neuroprotective activities” (Bioorg Med Chem Lett, 2024).
The source made the active and inactive calls. No cut-off for these calls is given here.

Columns and labels:
[1] = target: Histone deacetylase 1 (Homo sapiens, UniProt Q13547); assay: Inhibition of human HDAC1 using RHKKAc as substrate by fluorescence based assay
Chain of Histone deacetylase 1 (Q13547 whole entry): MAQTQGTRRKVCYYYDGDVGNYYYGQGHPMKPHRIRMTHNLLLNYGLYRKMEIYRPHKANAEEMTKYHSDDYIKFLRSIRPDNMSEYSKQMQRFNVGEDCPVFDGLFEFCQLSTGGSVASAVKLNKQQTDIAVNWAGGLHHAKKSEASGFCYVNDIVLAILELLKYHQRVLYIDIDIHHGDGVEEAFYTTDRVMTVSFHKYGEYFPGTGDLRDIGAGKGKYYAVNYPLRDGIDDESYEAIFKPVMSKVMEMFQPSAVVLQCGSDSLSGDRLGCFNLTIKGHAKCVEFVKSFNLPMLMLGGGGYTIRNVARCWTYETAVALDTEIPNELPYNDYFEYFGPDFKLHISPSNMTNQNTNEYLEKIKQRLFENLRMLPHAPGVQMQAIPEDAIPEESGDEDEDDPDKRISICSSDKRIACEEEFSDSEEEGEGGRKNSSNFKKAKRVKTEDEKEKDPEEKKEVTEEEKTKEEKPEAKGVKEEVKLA

[2] = target: T1, Protein deacetylase HDAC6 (Homo sapiens, UniProt Q9UBN7); assay: Inhibition of human HDAC6 using RHKKAc as substrate by fluorescence based assay
T1 sequence (Q9UBN7 whole entry): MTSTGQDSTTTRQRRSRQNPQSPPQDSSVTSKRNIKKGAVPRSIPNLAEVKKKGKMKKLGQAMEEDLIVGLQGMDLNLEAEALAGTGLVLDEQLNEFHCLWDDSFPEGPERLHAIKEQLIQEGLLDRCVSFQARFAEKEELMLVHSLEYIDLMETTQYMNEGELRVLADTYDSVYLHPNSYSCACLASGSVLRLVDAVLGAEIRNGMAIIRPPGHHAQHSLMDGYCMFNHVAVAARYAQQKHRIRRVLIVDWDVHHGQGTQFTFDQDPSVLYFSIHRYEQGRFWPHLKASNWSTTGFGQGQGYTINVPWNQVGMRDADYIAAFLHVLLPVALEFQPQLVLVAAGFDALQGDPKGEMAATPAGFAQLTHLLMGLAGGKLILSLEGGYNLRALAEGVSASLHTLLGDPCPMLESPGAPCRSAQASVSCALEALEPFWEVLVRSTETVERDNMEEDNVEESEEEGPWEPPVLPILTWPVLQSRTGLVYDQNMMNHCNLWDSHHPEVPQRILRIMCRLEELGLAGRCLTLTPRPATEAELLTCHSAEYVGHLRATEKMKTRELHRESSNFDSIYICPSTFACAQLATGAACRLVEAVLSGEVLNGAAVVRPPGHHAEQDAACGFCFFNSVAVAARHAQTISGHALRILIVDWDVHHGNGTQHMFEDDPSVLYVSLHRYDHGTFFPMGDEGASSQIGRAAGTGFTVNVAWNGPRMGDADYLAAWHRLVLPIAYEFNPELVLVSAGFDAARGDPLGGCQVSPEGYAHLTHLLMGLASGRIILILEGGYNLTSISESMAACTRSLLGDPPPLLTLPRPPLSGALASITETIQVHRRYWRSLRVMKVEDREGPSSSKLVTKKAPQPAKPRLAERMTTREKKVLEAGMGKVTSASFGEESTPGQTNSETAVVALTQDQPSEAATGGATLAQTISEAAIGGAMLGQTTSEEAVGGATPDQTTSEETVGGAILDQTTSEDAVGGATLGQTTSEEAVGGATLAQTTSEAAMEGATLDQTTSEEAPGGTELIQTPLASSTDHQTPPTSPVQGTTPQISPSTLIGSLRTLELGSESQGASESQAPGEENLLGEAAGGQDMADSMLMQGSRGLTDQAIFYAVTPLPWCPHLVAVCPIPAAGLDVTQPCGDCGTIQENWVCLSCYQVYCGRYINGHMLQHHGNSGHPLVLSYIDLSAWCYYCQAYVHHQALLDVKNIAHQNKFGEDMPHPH

[3] = species on record: Homo sapiens; assay: Selectivity index, ratio of IC50 for inhibition of human HDAC1 to IC50 for inhibition of human HDAC6
[4] = tested on: PC-12; assay: Induction of neurite outgrowth in NGF-induced rat PC-12 cells assessed as increase in percentage of neurite bearing cells at 3 uM relative to control; assay type: functional
[5] = tested on: PC-12; assay: Neuroprotective activity against H2O2-induced oxidative stress in rat PC-12 cells assessed as increase in cell viability at 5 uM incubated for 24 hrs; assay type: functional, cell-based
[6] = tested on: PC-12; assay: Induction of neurite outgrowth in NGF-induced rat PC-12 cells; assay type: functional, cell-based; conditions: dose 1-10 µM
[7] = tested on: PC-12; assay: Neuroprotective activity against H2O2-induced oxidative stress in rat PC-12 cells assessed as cell viability at 5 uM incubated for 24 hrs (reference value: 62.5 %); assay type: functional; conditions: read-out: Activity
[8] = Neurotoxicity in rat PC-12 cells at 1 to 10 uM; assay type: toxicity, cell-based; conditions: pc-12, 10 µM, dose 1-10 µM
[9] = target: Histone deacetylase 2 (Homo sapiens, UniProt Q92769); assay: Inhibition of human HDAC2 using RHKKAc as substrate by fluorescence based assay
Chain of Histone deacetylase 2 (Q92769 whole entry): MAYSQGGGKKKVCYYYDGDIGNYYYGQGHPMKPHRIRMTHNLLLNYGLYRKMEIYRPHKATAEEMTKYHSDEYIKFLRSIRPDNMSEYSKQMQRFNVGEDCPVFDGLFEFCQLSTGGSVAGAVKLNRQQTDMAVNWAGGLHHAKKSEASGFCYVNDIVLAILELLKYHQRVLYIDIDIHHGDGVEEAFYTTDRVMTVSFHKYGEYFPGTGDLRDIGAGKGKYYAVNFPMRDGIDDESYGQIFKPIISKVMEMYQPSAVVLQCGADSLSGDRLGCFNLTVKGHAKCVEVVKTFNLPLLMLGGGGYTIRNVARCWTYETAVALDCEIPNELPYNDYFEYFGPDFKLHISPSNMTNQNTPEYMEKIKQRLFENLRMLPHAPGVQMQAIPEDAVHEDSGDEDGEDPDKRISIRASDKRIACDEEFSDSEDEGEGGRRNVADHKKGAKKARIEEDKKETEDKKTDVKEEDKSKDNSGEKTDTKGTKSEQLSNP

[10] = target: Histone deacetylase 3/Nuclear receptor corepressor 2 (HDAC3/NCoR2) (Homo sapiens, UniProt O15379); assay: Inhibition of human HDAC3/NCOR2 using RHKKAc as substrate by fluorescence based assay; assay type: protein-complex assay
Chain of Histone deacetylase 3/Nuclear receptor corepressor 2 (HDAC3/NCoR2) (O15379 whole entry): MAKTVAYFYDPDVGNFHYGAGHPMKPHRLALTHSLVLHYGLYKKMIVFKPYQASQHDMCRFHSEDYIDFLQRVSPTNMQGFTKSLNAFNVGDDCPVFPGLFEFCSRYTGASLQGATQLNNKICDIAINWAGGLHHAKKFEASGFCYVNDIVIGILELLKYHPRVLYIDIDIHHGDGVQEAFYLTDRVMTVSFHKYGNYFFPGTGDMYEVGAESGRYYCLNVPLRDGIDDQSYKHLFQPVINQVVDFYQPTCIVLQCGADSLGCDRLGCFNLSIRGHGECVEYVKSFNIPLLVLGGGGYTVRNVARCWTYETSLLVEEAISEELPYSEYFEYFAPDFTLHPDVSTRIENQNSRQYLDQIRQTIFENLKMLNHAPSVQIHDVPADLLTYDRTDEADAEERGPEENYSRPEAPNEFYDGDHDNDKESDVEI
Chain of Histone deacetylase 3/Nuclear receptor corepressor 2 (HDAC3/NCoR2) (Q9Y618 whole entry, further chain): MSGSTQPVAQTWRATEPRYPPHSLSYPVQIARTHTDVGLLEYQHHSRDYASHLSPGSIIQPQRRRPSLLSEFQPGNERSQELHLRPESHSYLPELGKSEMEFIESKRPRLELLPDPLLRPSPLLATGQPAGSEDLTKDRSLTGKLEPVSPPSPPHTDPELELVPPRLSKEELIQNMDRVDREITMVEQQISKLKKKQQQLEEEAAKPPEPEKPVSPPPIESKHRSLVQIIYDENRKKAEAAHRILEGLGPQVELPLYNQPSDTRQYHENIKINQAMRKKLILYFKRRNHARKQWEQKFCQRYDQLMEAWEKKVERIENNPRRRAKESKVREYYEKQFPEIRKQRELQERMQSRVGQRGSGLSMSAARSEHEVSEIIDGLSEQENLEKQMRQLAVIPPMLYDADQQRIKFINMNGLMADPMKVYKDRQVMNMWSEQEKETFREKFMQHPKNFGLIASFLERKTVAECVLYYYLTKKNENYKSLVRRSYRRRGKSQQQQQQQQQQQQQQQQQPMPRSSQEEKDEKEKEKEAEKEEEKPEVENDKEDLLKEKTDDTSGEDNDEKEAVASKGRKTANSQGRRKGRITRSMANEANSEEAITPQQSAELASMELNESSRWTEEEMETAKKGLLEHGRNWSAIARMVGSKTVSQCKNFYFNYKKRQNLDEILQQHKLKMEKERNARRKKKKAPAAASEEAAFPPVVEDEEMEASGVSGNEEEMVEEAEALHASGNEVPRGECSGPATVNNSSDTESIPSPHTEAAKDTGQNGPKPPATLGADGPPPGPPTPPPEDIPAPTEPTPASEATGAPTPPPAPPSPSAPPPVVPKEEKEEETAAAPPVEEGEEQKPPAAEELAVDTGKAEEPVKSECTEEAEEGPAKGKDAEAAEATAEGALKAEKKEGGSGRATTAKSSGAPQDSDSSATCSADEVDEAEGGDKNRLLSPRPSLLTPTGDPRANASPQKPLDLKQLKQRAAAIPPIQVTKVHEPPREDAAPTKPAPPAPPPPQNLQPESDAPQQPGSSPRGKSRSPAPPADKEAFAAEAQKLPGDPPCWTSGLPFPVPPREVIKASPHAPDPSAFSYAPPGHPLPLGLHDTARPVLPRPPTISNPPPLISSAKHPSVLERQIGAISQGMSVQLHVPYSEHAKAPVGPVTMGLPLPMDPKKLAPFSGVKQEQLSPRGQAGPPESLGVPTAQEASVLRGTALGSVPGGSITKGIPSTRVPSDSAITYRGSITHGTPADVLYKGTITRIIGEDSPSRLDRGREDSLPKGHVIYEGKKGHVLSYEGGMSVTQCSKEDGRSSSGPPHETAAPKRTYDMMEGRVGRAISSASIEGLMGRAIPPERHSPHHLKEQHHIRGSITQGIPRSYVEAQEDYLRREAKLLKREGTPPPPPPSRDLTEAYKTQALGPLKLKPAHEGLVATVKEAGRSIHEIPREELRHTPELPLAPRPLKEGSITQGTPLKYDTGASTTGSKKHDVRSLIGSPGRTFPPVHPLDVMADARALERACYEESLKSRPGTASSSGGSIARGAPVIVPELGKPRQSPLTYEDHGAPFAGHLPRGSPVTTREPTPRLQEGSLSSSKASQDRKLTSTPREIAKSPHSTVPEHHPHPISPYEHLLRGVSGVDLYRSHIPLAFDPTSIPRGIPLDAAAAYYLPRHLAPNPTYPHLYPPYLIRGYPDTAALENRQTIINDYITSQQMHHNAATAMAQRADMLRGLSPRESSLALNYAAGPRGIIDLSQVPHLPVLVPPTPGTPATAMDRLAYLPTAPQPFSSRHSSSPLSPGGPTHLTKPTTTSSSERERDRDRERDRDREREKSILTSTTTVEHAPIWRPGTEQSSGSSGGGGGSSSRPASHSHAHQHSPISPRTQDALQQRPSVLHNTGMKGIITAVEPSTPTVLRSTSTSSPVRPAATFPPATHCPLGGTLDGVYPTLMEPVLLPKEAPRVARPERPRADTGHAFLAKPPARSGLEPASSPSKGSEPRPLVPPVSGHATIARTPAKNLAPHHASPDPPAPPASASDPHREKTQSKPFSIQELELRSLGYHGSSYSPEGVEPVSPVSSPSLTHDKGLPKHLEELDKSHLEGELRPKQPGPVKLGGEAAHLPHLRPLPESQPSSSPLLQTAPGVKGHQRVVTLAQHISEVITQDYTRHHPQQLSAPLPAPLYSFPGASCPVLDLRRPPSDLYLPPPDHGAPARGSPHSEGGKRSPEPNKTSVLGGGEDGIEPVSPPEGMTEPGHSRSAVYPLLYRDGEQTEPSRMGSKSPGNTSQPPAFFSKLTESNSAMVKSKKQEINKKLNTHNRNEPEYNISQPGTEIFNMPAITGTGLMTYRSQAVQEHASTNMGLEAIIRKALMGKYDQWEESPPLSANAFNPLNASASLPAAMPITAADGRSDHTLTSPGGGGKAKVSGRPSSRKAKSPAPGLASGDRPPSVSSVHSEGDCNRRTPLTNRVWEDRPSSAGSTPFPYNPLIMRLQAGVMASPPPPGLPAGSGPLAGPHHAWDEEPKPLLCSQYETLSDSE

[11] = target: Histone deacetylase 5 (Homo sapiens, UniProt Q9UQL6); assay: Inhibition of human HDAC5 using Boc-Lys(trifluoroacetyl)-AMC as substrate by fluorescence based assay
Chain of Histone deacetylase 5 (Q9UQL6 whole entry): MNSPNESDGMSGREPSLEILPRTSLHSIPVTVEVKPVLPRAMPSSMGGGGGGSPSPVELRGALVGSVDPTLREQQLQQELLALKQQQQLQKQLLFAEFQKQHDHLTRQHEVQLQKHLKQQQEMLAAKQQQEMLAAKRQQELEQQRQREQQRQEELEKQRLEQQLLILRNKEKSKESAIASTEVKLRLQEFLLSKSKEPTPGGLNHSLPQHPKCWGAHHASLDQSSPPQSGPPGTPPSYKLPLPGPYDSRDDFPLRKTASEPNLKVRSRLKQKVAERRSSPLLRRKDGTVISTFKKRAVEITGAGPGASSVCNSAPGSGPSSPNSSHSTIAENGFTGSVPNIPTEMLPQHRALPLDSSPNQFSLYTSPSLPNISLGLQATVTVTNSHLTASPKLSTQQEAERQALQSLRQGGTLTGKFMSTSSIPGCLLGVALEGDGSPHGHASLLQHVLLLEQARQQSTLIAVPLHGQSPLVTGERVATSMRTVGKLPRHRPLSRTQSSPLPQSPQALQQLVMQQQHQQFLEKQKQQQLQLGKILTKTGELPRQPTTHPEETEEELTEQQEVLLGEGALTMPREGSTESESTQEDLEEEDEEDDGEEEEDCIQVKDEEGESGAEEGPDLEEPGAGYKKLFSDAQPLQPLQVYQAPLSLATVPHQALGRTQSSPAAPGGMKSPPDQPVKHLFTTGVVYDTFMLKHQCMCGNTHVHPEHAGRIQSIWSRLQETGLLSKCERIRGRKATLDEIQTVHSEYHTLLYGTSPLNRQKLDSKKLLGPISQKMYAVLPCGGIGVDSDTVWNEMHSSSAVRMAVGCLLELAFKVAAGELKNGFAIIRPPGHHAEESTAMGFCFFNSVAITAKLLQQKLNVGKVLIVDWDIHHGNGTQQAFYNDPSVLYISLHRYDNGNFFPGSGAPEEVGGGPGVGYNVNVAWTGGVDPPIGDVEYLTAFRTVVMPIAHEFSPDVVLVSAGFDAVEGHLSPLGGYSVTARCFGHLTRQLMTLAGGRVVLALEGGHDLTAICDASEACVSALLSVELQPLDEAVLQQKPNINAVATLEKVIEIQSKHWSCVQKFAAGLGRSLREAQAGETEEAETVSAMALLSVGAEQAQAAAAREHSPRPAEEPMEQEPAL

[12] = target: T2, Histone deacetylase 8 (Homo sapiens, UniProt Q9BY41); assay: Inhibition of human HDAC8 using RHK(Ac)-K(Ac) as substrate by fluorescence based assay
T2 sequence (Q9BY41 whole entry): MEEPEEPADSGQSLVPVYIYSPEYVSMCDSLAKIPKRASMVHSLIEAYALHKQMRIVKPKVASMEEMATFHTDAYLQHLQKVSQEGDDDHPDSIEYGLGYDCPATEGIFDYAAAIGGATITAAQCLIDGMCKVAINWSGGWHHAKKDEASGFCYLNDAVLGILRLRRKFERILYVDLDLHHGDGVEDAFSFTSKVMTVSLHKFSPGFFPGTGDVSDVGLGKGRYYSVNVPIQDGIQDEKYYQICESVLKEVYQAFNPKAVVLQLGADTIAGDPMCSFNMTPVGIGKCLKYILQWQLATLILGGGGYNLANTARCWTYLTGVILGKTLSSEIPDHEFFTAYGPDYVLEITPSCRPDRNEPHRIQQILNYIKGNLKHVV

[13] = tested on: PC-12; assay: Inhibition of HDAC6 in rat PC-12 cells assessed as increase in alpha-tubulin acetylation incubated for 24 hrs by Western blot analysis; assay type: cell-based; conditions: dose 0.1-1 µM

IC50 [1] | IC50 [2] | Ratio IC50 [3] | IC50 [9] | IC50 [10] | IC50 [11] | IC50 [12] | Structure (SMILES) | Activity [4] | Activity [5] | Activity [6] | viability at 5 µM [7] | Activity [8] | inhibition [13]
742 nM | 5.3 nM | 140 | – | – | – | – | O=C(NO)c1ccc(CNC(=O)[C@@H]2Cc3c([nH]c4ccccc34)[C@@H](c3ccccc3)N2)cc1 | 23.3% | inactive | – | – | – | –
– | – | – | – | – | – | – | COc1ccc(CN2[C@H](C(=O)NCc3ccc(C(=O)NO)cc3)Cc3c([nH]c4ccccc34)[C@H]2C2CC2)cc1 | 23.3% | – | Dose-Dependent Effect | > 85% | – | –
> 10000 nM | 34.2 nM | – | – | – | – | – | COc1ccc(CN2[C@H](C)c3[nH]c4ccccc4c3C[C@H]2C(=O)NCc2ccc(C(=O)NO)cc2)cc1 | – | – | – | – | – | –
1740 nM | 11.2 nM | 155 | – | – | – | – | O=C(NO)c1ccc(CNC(=O)[C@@H]2Cc3c([nH]c4ccccc34)[C@@H](C3CC3)N2Cc2ccc(Cl)cc2)cc1 | 23.3% | – | Dose-Dependent Effect | 92.5% | – | –
118 nM | 3.25 nM | 36 | – | – | – | – | O=C(NO)c1ccc(CNC(=O)[C@@H]2Cc3c([nH]c4ccccc34)[C@@H](C3CC3)N2)cc1 | 23.3% | inactive | – | – | – | –
1700 nM | 12.7 nM | 134 | – | – | – | – | O=C(NO)c1ccc(CNC(=O)[C@@H]2Cc3c([nH]c4ccccc34)[C@@H](C3CC3)N2Cc2ccccc2)cc1 | 23.3% | – | Dose-Dependent Effect | > 85% | – | –
390 nM | – | – | – | – | – | – | COc1ccc([C@H]2N[C@H](C(=O)NCc3ccc(C(=O)NO)cc3)Cc3c2[nH]c2ccccc32)cc1OC | 23.3% | inactive | – | – | – | –
216 nM | 2 nM | 108 | – | – | – | – | O=C(NO)c1ccc(CNC(=O)[C@@H]2Cc3c([nH]c4ccccc34)[C@@H](c3ccc4c(c3)OCO4)N2)cc1 | 46.4% | inactive | – | – | Toxic | –
204 nM | 4.54 nM | 45 | – | – | – | – | O=C(NO)c1ccc(CNC(=O)[C@@H]2Cc3c([nH]c4ccccc34)[C@@H](C3CCCC3)N2)cc1 | 23.3% | inactive | – | – | – | –
1280 nM | – | – | 1440 nM | 1660 nM | > 10000 nM | > 10000 nM | O=C(NO)c1ccc(CNC(=O)[C@@H]2Cc3c([nH]c4ccccc34)[C@@H](c3ccc(Cl)cc3)N2CC2CC2)cc1 | 47.1% | – | Dose-Dependent Effect | 99.6% | – | Dose-Dependent Effect
770 nM | 5.61 nM | 137 | – | – | – | – | O=C(NO)c1ccc(CNC(=O)[C@@H]2Cc3c([nH]c4ccccc34)[C@@H](c3ccc(Cl)cc3)N2)cc1 | 23.3% | inactive | – | – | – | –
– | – | – | – | – | – | – | CN1CCc2c(c3ccccc3n2Cc2ccc(C(=O)NO)cc2)C1 [TUBASTATIN A] | 26.7% | – | – | 77.6% | – | –
